The source of these data is patent publication US12435031B2, “Compound with broad-spectrum antibacterial activity and its antibacterial composition” (CHINA AGRICULTURAL UNIVERSITY, priority 2023, dated 2025).

This assay relates to Clostridium perfringens. Kind of assay: microbe, parasite or virus in culture. It is filed as cell-based.
Where [1] appears, read: Clostridium perfringens, read-out: MIC value against Clostridium perfringens, strain A3-1 (A-type).
[2] abbreviates: Clostridium perfringens, read-out: MIC value against Clostridium perfringens, strain A3-2 (A-type).
The mark [3] stands for this setting: Clostridium perfringens, read-out: MIC value against Clostridium perfringens, strain A57-1 (A-type).
Setting [4] is: Clostridium perfringens, read-out: MIC value against Clostridium perfringens, strain B4 (B-type).
Where [5] appears, read: Clostridium perfringens, read-out: MIC value against Clostridium perfringens, strain B5 (B-type).
Setting [6] is: Clostridium perfringens, read-out: MIC value against Clostridium perfringens, strain C3 (C-type).
The mark [7] stands for this setting: Clostridium perfringens, read-out: MIC value against Clostridium perfringens, strain C8 (C-type).
Setting [8] is: Clostridium perfringens, read-out: MIC value against Clostridium perfringens, strain C59-1 (C-type).
Where [9] appears, read: Clostridium perfringens, read-out: MIC value against Clostridium perfringens, strain D14B (D-type).
Where [10] appears, read: Clostridium perfringens, read-out: MIC value against Clostridium perfringens, strain F5-2 (F-type).
Where [11] appears, read: Clostridium perfringens, read-out: MIC value against Clostridium perfringens, strain F6-1 (F-type).
Where [12] appears, read: Clostridium perfringens, read-out: MIC value against Clostridium perfringens, strain F6-2 (F-type).
The mark [13] stands for this setting: Clostridium perfringens, read-out: MIC value against Clostridium perfringens, strain F6-2-1 (F-type).
[14] abbreviates: Clostridium perfringens, read-out: MIC value against Clostridium perfringens, strain F6-2-2 (F-type).
Where [15] appears, read: Clostridium perfringens, read-out: MIC value against Clostridium perfringens, strain F7-1 (F-type).
[16] abbreviates: Clostridium perfringens, read-out: MIC value against Clostridium perfringens, strain F8-1 (F-type).
Where [17] appears, read: Clostridium perfringens, read-out: MIC value against Clostridium perfringens, strain H12-1 (H-type).
Setting [18] is: Clostridium perfringens, read-out: MIC value against Clostridium perfringens, strain H12-2 (H-type).
The mark [19] stands for this setting: Clostridium perfringens, read-out: MIC value against Clostridium perfringens, strain H13-1 (H-type).
The mark [20] stands for this setting: Clostridium perfringens, read-out: MIC value against Clostridium perfringens, strain H14-1 (H-type).
The mark [21] stands for this setting: Clostridium perfringens, read-out: MIC value against Clostridium perfringens, strain H14-2 (H-type).
The mark [22] stands for this setting: Clostridium perfringens, read-out: MIC value against Clostridium perfringens, strain H14-4 (H-type).
Where [23] appears, read: Clostridium perfringens, read-out: MIC value against Clostridium perfringens, strain H15-1 (H-type).
[24] abbreviates: Clostridium perfringens, read-out: MIC value against Clostridium perfringens, strain H15-2 (H-type).
[25] abbreviates: Clostridium perfringens, read-out: MIC value against Clostridium perfringens, strain H15-3 (H-type).
[26] abbreviates: Clostridium perfringens, read-out: MIC value against Clostridium perfringens, strain H16 (H-type).

≈ marks a conversion by molar mass, not a printed value. Like-named read-outs stand apart in the source and are kept apart here.

Regarding `O=C(Nc1cc(Cl)cc(Br)c1)c1cc(Cl)ccc1O` [BAB142], under “Clostridium perfringens”, the MIC50 was 16 µg/mL (≈ 44.3 µM).
`Cc1cc(C(F)(F)F)ccc1NC(=O)c1cc(Cl)ccc1O` [BAB151] returned an MIC50 (Clostridium perfringens) of 8 µg/mL (≈ 24.3 µM).
On the same count and under the same terms, the same measure for `O=C(Nc1ccc(Cl)c(C(F)(F)F)c1Cl)c1cc(Cl)ccc1O` [BAB160]: 8 µg/mL (≈ 20.8 µM).
Same read-out and setting: the figure for `O=C(Nc1cc(F)c(Cl)c(Cl)c1)c1cc(Cl)ccc1O` [BAB166] is 32 µg/mL (≈ 95.6 µM).
Regarding `CO/N=C(\C(=O)N[C@@H]1C(=O)N2C(C(=O)O)=C(CSC(=O)c3ccco3)CS[C@H]12)c1csc(N)n1` [CEF, Ceftiofur], the MIC by setting is: under setting [1], not above 0.25 µg/mL; under setting [2], not above 0.25 µg/mL; under setting [3], not above 0.25 µg/mL; under setting [4], not above 0.25 µg/mL; under setting [5], not above 0.25 µg/mL; under setting [6], 1 µg/mL (≈ 1.91 µM). Further, the MIC is not above 0.25 µg/mL under setting [7]; not above 0.25 µg/mL under setting [8]; not above 0.25 µg/mL under setting [9]; not above 0.25 µg/mL under setting [10]; not above 0.25 µg/mL under setting [11]; not above 0.25 µg/mL under setting [12]. In addition, the MIC by setting is: under setting [13], not above 0.25 µg/mL; under setting [14], not above 0.25 µg/mL; under setting [15], not above 0.25 µg/mL; under setting [16], not above 0.25 µg/mL; under setting [17], not above 0.25 µg/mL; under setting [18], not above 0.25 µg/mL. In addition, the MIC by setting is: under setting [19], not above 0.25 µg/mL; under setting [20], not above 0.25 µg/mL; under setting [21], not above 0.25 µg/mL; under setting [22], not above 0.25 µg/mL; under setting [23], not above 0.25 µg/mL; under setting [24], not above 0.25 µg/mL. For the same compound, the MIC was not above 0.25 µg/mL under setting [25] and not above 0.25 µg/mL under setting [26].
In turn, `C[C@H]1c2cccc(O)c2C(=O)C2=C(O)[C@]3(O)C(=O)C(C(N)=O)=C(O)[C@@H](N(C)C)[C@@H]3[C@@H](O)[C@@H]21` [DOX, Doxycycline] registered an MIC50 (Clostridium perfringens) of 8 µg/mL (≈ 18 µM). Besides, the MIC90 (Clostridium perfringens) was determined as 16 µg/mL (≈ 36 µM). Also, the MIC by setting is: under setting [1], 8 µg/mL (≈ 18 µM); under setting [2], 8 µg/mL (≈ 18 µM); under setting [3], not above 0.25 µg/mL; under setting [4], 2 µg/mL (≈ 4.5 µM); under setting [5], 8 µg/mL (≈ 18 µM); under setting [6], 16 µg/mL (≈ 36 µM). Besides, the MIC under setting [7] is not above 0.25 µg/mL; the MIC under setting [8] was not above 0.25 µg/mL; the MIC under setting [9] was found to be 1 µg/mL (≈ 2.25 µM); the MIC under setting [10] came out at 4 µg/mL (≈ 9 µM); the MIC under setting [11] turned out to be 32 µg/mL (≈ 72 µM); the MIC under setting [12] stood at 16 µg/mL (≈ 36 µM). Moreover, the MIC is 16 µg/mL (≈ 36 µM) under setting [13]; 16 µg/mL (≈ 36 µM) under setting [14]; 8 µg/mL (≈ 18 µM) under setting [15]; 16 µg/mL (≈ 36 µM) under setting [16]; 4 µg/mL (≈ 9 µM) under setting [17]; 4 µg/mL (≈ 9 µM) under setting [18]. Besides, the MIC reads like this: under setting [19], 8 µg/mL (≈ 18 µM); under setting [20], 8 µg/mL (≈ 18 µM); under setting [21], 8 µg/mL (≈ 18 µM); under setting [22], 4 µg/mL (≈ 9 µM); under setting [23], 16 µg/mL (≈ 36 µM); under setting [24], 16 µg/mL (≈ 36 µM). In addition, the MIC is, setting by setting: under setting [25], 8 µg/mL (≈ 18 µM); under setting [26], 8 µg/mL (≈ 18 µM).
In the case of `CCC[C@@H]1C[C@@H](C(=O)N[C@@H]([C@H]2O[C@H](SC)[C@H](O)[C@@H](O)[C@H]2O)[C@@H](C)O)N(C)C1` [LIN, Lincomycin], the MIC50 (Clostridium perfringens) stood at 8 µg/mL (≈ 19.7 µM). Also, for the setting “Clostridium perfringens”, the MIC90 was more than 128 µg/mL. The MIC is 1 µg/mL (≈ 2.46 µM) under setting [1]; 0.5 µg/mL (≈ 1.23 µM) under setting [2]; 2 µg/mL (≈ 4.92 µM) under setting [3]; more than 128 µg/mL under setting [4]; more than 128 µg/mL under setting [5]; more than 128 µg/mL under setting [6]. Moreover, the MIC is, setting by setting: under setting [7], 128 µg/mL (≈ 315 µM); under setting [8], 0.5 µg/mL (≈ 1.23 µM); under setting [9], 64 µg/mL (≈ 157 µM); under setting [10], 128 µg/mL (≈ 315 µM); under setting [11], 32 µg/mL (≈ 78.7 µM); under setting [12], 32 µg/mL (≈ 78.7 µM). Moreover, the MIC under setting [13] is 128 µg/mL (≈ 315 µM); the MIC under setting [14] was 128 µg/mL (≈ 315 µM); the MIC under setting [15] was more than 128 µg/mL; the MIC under setting [16] was more than 128 µg/mL; the MIC under setting [17] was 0.5 µg/mL (≈ 1.23 µM); the MIC under setting [18] is not above 0.25 µg/mL. In addition, the MIC is, setting by setting: under setting [19], 4 µg/mL (≈ 9.84 µM); under setting [20], 8 µg/mL (≈ 19.7 µM); under setting [21], 8 µg/mL (≈ 19.7 µM); under setting [22], 4 µg/mL (≈ 9.84 µM); under setting [23], not above 0.25 µg/mL; under setting [24], 4 µg/mL (≈ 9.84 µM). Besides, the MIC was found to be 4 µg/mL (≈ 9.84 µM) under setting [25] and 4 µg/mL (≈ 9.84 µM) under setting [26].
As to `Cc1c(C(=O)C=Cc2ccccc2)[n+](=O)c2ccccc2n1[O-]` [QCT, Quincetone], the “MIC value against Clostridium perfringens” value (shortened to “MIC value”) was 0.5 µg/mL (≈ 1.63 µM) (strain A3-1 (A-type)); not above 0.25 µg/mL (strain A3-2 (A-type)); not above 0.25 µg/mL (strain A57-1 (A-type)); not above 0.25 µg/mL (strain B4 (B-type)); not above 0.25 µg/mL (strain B5 (B-type)); 1 µg/mL (≈ 3.26 µM) (strain C3 (C-type)). Besides, the “MIC value” value was not above 0.25 µg/mL (strain C8 (C-type)); not above 0.25 µg/mL (strain C59-1 (C-type)); not above 0.25 µg/mL (strain D14B (D-type)); 0.5 µg/mL (≈ 1.63 µM) (strain F5-2 (F-type)); 4 µg/mL (≈ 13.1 µM) (strain F6-1 (F-type)); 0.5 µg/mL (≈ 1.63 µM) (strain F6-2 (F-type)). The “MIC value” value by setting is: (strain F6-2-1 (F-type)) 1 µg/mL (≈ 3.26 µM); (strain F6-2-2 (F-type)) not above 0.25 µg/mL; (strain F7-1 (F-type)) not above 0.25 µg/mL; (strain F8-1 (F-type)) 0.5 µg/mL (≈ 1.63 µM); (strain H12-1 (H-type)) not above 0.25 µg/mL; (strain H12-2 (H-type)) not above 0.25 µg/mL. Also, the “MIC value” value is, setting by setting: (strain H13-1 (H-type)) not above 0.25 µg/mL; (strain H14-1 (H-type)) not above 0.25 µg/mL; (strain H14-2 (H-type)) 0.5 µg/mL (≈ 1.63 µM); (strain H14-4 (H-type)) not above 0.25 µg/mL; (strain H15-1 (H-type)) not above 0.25 µg/mL; (strain H15-2 (H-type)) not above 0.25 µg/mL. The “MIC value” value is 0.5 µg/mL (≈ 1.63 µM) (strain H15-3 (H-type)) and not above 0.25 µg/mL (strain H16 (H-type)).
As to `C=C[C@]1(C)C[C@@H](OC(=O)CSCCN(CC)CC)[C@]2(C)[C@H](C)CC[C@]3(CCC(=O)[C@H]32)[C@@H](C)[C@@H]1O` [TIA, Tiamulin], the MIC90 (Clostridium perfringens) was determined as 8 µg/mL (≈ 16.2 µM). Moreover, the MIC50 (Clostridium perfringens (n=26), unit as printed for tiamulin) worked out at 0.5 µg/mL (≈ 1.01 µM). Moreover, the MIC runs as follows: under setting [1], 0.5 µg/mL (≈ 1.01 µM); under setting [2], 0.5 µg/mL (≈ 1.01 µM); under setting [3], 4 µg/mL (≈ 8.1 µM); under setting [4], 4 µg/mL (≈ 8.1 µM); under setting [5], 0.5 µg/mL (≈ 1.01 µM); under setting [6], 8 µg/mL (≈ 16.2 µM). Also, the MIC was 0.5 µg/mL (≈ 1.01 µM) under setting [7]; not above 0.25 µg/mL under setting [8]; 8 µg/mL (≈ 16.2 µM) under setting [9]; 0.5 µg/mL (≈ 1.01 µM) under setting [10]; 0.5 µg/mL (≈ 1.01 µM) under setting [11]; 0.5 µg/mL (≈ 1.01 µM) under setting [12]. The MIC is 0.5 µg/mL (≈ 1.01 µM) under setting [13]; 0.5 µg/mL (≈ 1.01 µM) under setting [14]; 4 µg/mL (≈ 8.1 µM) under setting [15]; 4 µg/mL (≈ 8.1 µM) under setting [16]; 0.5 µg/mL (≈ 1.01 µM) under setting [17]; not above 0.25 µg/mL under setting [18]. The MIC under setting [19] was determined as 4 µg/mL (≈ 8.1 µM); the MIC under setting [20] stood at 8 µg/mL (≈ 16.2 µM); the MIC under setting [21] was determined as 8 µg/mL (≈ 16.2 µM); the MIC under setting [22] amounted to 4 µg/mL (≈ 8.1 µM); the MIC under setting [23] was not above 0.25 µg/mL; the MIC under setting [24] was 4 µg/mL (≈ 8.1 µM). For the same compound, the MIC runs as follows: under setting [25], 4 µg/mL (≈ 8.1 µM); under setting [26], 4 µg/mL (≈ 8.1 µM).
